Patent US10870638B2, “Pyridazinone compound or its salt, and herbicide containing it” (ISHIHARA SANGYO KAISHA, LTD., priority 2016, dated 2020)

Key:
Assay type in all cases: in vivo
Details in all cases: active ingredient amount 31 g/ha, 14th day after application
[1] = tested on: rice (Oryza sativa L.); experiment: Test Example 1: foliar treatment, growth inhibition rate on 14th day
How it was run: (§1)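 Inhibition was rated visually 14 days after treatment on a 0–100% scale, where 100 is complete kill. Compounds, formulated as wettable powders or emulsifiable concentrates at set active-ingredient amounts, were diluted to 1,000 L/ha with 0.1 vol% spreader. The dilutions were sprayed post-emergence onto soybean (primary leaf), rice (0.2–2.7 leaf), wild oat (0.4–1.2) and green foxtail (0.5–3.2).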

[2] = tested on: redroot pigweed (Amaranthus retroflexus L.); experiment: as above
How it was run: (§2)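 Visual 0–100% inhibition scoring (100 = complete kill) at 14 days after foliar treatment of soil-grown seedlings at species-specific leaf stages, with the compound sprayed as a wettable powder or emulsifiable concentrate dilution.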

[3] = tested on: wild oat (Avena fatua L.); experiment: as above
How it was run: as §1

[4] = tested on: wheat (Triticum aestivum L.); experiment: as above
How it was run: as §2

[5] = tested on: corn (Zea mays L.); experiment: as above
How it was run: as §2

[6] = tested on: soybean (Glycine max Merr.); experiment: as above
How it was run: as §1

[7] = tested on: italian ryegrass (Lolium multiflorum Lam.); experiment: as above
How it was run: as §2

[8] = tested on: crabgrass (Digitaria sanquinalis L.); experiment: as above
How it was run: as §2

[9] = tested on: barnyardgrass (Echinochloa crus-qalli L.); experiment: as above
How it was run: as §2

[10] = tested on: green foxtail (Setaria viridis L.); experiment: as above
How it was run: as §1

[11] = tested on: rice (Oryza sativa L.); experiment: Test Example 2: soil application on the day after sowing, growth inhibition rate on 14th day
Source text: (§3) Upland field soil was put into a 1/300,000 hectare pot, and seeds of various plants (barnyardgrass (Echinochloa crus-qalli L.), crabgrass (Digitaris sanquinalis L.), green foxtail (Setaria viridis L.), redroot pigweed (Amaranthus retroflexus L.), prickly sida (Sida spinosa L.), velvetleaf (Abutilon theophrasti MEDIC.), rice (Oryza sativa L.), corn (Zea mays L.), wheat (Triticum aestivum L.), soybean (Glycine max Merr.)) were sown. On the day after sowing, wettable powders or emulsifiable concentrates of the compounds of the present invention prepared in accordance with a conventional preparation method, were weighed so as to achieve the prescribed active ingredient amounts, and diluted with water in an amount corresponding to 1,000 liters per 1 hectare, followed by soil application by a small sprayer.
(§4) On the 14th day after the application, the state of growth of the respective plants was visually observed, and the herbicidal effect was evaluated by a growth inhibition rate (%) of 0 (equivalent to the non-treated area) to 100 (complete kill).

[12] = tested on: redroot pigweed (Amaranthus retroflexus L.); experiment: as above
Source text: as §3, §4

[13] = tested on: velvetleaf (Abutilon theophrasti MEDIC.); experiment: as above
Source text: as §3, §4

[14] = tested on: prickly sida (Sida spinosa L.); experiment: as above
Source text: as §3, §4

[15] = tested on: wheat (Triticum aestivum L.); experiment: as above
Source text: as §3, §4

[16] = tested on: corn (Zea mays L.); experiment: as above
Source text: as §3, §4

[17] = tested on: soybean (Glycine max Merr.); experiment: as above
Source text: as §3, §4

[18] = tested on: barnyardgrass (Echinochloa crus-qalli L.); experiment: as above
Source text: as §3, §4

[19] = tested on: green foxtail (Setaria viridis L.); experiment: as above
Source text: as §3, §4

[20] = tested on: crabgrass (Digitaris sanquinalis L.); experiment: as above
Source text: as §3, §4

SMILES | Growth inhibition rate (%) Rice [1] | Growth inhibition rate (%) Redroot pigweed [2] | Growth inhibition rate (%) Wild oat [3] | Growth inhibition rate (%) Wheat [4] | Growth inhibition rate (%) Corn [5] | Growth inhibition rate (%) Soybean [6] | Growth inhibition rate (%) Italian ryegrass [7] | Growth inhibition rate (%) Crabgrass [8] | Growth inhibition rate (%) Barnyardgrass [9] | Growth inhibition rate (%) Green foxtail [10] | Growth inhibition rate (%) Rice [11] | Growth inhibition rate (%) Redroot pigweed [12] | Growth inhibition rate (%) Velvetleaf [13] | Growth inhibition rate (%) Prickly sida [14] | Growth inhibition rate (%) Wheat [15] | Growth inhibition rate (%) Corn [16] | Growth inhibition rate (%) Soybean [17] | Growth inhibition rate (%) Barnyardgrass [18] | Growth inhibition rate (%) Green foxtail [19] | Growth inhibition rate (%) Crabgrass [20]
CCc1ccc(Oc2nc3ccc(Cl)cc3o2)cc1-c1c(OC(C)=O)c(C)nn(C)c1=O [Compound 2-159] | 100% | 0% | 100% | 99% | 100% | 35% | 100% | 100% | 100% | 100% | 0% | 0% | 0% | 0% | 0% | 0% | 0% | 100% | 99% | 98%
Cn1ncc(O)c(-c2cc(Oc3ncc(C(F)(F)F)cc3Cl)ccc2OC(F)(F)F)c1=O [1-162] | 93% | 0% | 100% | 99% | 98% | 0% | 99% | 100% | 100% | 100% | 95% | 0% | 0% | 0% | 0% | 40% | 0% | 100% | 100% | 100%
Cc1ccc(Oc2nc3ccc(F)cc3s2)cc1-c1c(O)c(C)nn(C)c1=O [Compound 2-155] | 0% | 0% | 0% | 25% | 10% | 0% | 10% | 40% | 78% | 60% | 70% | 0% | 0% | 0% | 0% | 0% | 0% | 85% | 88% | 83%
CCc1ccc(Oc2nc3ccc(Cl)cc3s2)cc1-c1c(O)c(C)nn(C)c1=O [Compound 2-150] | 30% | 0% | 50% | 75% | 30% | 0% | 98% | 60% | 100% | 98% | 0% | 100% | 0% | 75% | 0% | 0% | 0% | 100% | 98% | 90%
CC(=O)Oc1c(C)nn(C)c(=O)c1-c1cc(Oc2cnc(C(F)(F)F)cn2)ccc1C [Compound 2-195] | 40% | 0% | 90% | 35% | 83% | 30% | 85% | 90% | 93% | 93% | 20% | 0% | 0% | 0% | 0% | 0% | 0% | 98% | 99% | 98%
CC(=O)Oc1cnn(C)c(=O)c1-c1cc(Oc2nc3ccc(Cl)cc3o2)ccc1C [Compound 2-164] | 83% | 0% | 90% | 10% | 90% | 40% | 95% | 100% | 100% | 100% | 0% | 0% | 0% | 0% | 0% | 0% | 0% | 50% | 90% | 98%
CCc1ccc(Oc2ncc(C(F)(F)F)cc2Cl)cc1-c1c(OC(C)=O)cnn(CC)c1=O [1-174] | 20% | 0% | 100% | 75% | 100% | 0% | 93% | 100% | 100% | 100% | 0% | 0% | 0% | 0% | 0% | 0% | 0% | 100% | 100% | 100%
Cc1ccc(Oc2cnc3cc(Cl)ccc3n2)cc1-c1c(O)c(C)nn(C)c1=O [Compound 2-7] | 100% | 50% | 98% | 98% | 10% | 0% | 100% | – | 100% | 100% | 40% | 0% | 0% | 0% | 25% | 20% | 0% | 99% | 100% | 99%
